The text below walks through data of patent US20250230165A1, “HETEROCYCLIC COMPOUNDS FOR USE IN THE TREATMENT OF CANCER” (ARTIOS PHARMA LIMITED, priority 2021, published 2025).

In this assay the target is T1, Human Polθ polymerase domain (aa1820-2590) (Homo sapiens, UniProt O75417).
T1 construct: Human Polθ polymerase domain (aa1820-2590) was expressed in E. coli; made in house; host or cells: E. coli
T1 sequence (O75417 1820-2590): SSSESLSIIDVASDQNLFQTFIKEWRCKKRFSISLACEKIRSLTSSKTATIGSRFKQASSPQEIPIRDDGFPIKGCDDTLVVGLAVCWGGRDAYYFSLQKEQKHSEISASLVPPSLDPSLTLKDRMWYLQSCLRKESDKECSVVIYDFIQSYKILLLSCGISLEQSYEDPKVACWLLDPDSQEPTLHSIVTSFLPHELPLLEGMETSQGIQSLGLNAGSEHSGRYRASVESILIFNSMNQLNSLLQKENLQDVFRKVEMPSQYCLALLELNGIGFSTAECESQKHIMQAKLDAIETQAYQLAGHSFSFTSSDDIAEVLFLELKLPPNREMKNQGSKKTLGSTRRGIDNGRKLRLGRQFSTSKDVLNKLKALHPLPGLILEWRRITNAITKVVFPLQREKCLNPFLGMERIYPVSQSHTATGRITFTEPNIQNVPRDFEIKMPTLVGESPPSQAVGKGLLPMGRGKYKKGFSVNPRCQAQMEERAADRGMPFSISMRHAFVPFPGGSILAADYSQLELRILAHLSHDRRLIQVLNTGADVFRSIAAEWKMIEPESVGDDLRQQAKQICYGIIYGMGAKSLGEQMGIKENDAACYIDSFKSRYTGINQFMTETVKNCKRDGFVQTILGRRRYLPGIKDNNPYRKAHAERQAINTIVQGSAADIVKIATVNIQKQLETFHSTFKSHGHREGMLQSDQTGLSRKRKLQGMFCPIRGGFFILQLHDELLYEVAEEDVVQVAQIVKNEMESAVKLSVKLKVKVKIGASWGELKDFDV
In words: Polθ Polymerase Domain Kinact/KI Assay (PicoGreen). As to conditions: 0.8 nM Polθ, 100 nM DNA substrate, kobs vs [I] fit for 2-step covalent inhibitor. Type of assay: biochemical. The method, boiled down:
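Time-dependent inhibition was followed by quenching reactions with EDTA at points up to 60 min, then staining product DNA with PicoGreen fluorescence. Reactions held 0.8 nM E. coli-expressed Polθ, 100 nM primed DNA substrate and […] at pH 7.5, 1% DMSO. kobs versus inhibitor concentration gave Kinact and KI.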

For the compound `Cc1cc(C(F)(F)F)cc(N2C(=O)C[C@@H]3CN(CCCOC4CN(C(=O)/C=C/CN(C)C)C4)c4c(Cl)cccc4N(C)C(=O)[C@H]32)n1` [Example 44, (3aR,11aS)-6-chloro-5-(3-((1-((E)-4-(dimethylamino)but-2-enoyl)azetidin-3-yl)oxy)propyl)-10-methyl-1-(6-methyl-4-(trifluoromethyl)pyridin-2-yl)-1,3a,4,5,10,11a-hexahydro-2H-benzo[b]pyrrolo[2,3-f][1,4]diazocine-2,11(3H)-dione], the Kinact/Kl is 2.22e+06 M⁻¹ s⁻¹.

`C=CC(=O)N1Cc2cc(CN3C[C@H]4CC(=O)N(c5cc(C(F)(F)F)cc(C)n5)[C@@H]4C(=O)N(C)c4cccc(Cl)c43)nn2CC1C` (single isomer, unassigned) [Example 294a] returned a Kinact/Kl of 1.61e+06 M⁻¹ s⁻¹.

In the case of `C=C(CN(C)C)C(=O)N1CC(CCN2C[C@H]3CC(=O)N(c4cc(C(F)(F)F)cc(C)n4)[C@@H]3C(=O)N(C)c3cccc(Cl)c32)C1` [Example 298, (3aR,11aS)-6-chloro-5-(2-(1-(2-((dimethylamino)methyl)acryloyl)azetidin-3-yl)ethyl)-10-methyl-1-(6-methyl-4-(trifluoromethyl)pyridin-2-yl)-1,3a,4,5,10,11a-hexahydro-2H-benzo[b]pyrrolo[2,3-f][1,4]diazocine-2,11(3H)-dione], the Kinact/Kl turned out to be 3.64e+06 M⁻¹ s⁻¹.

The compound `Cc1cc(C(F)(F)F)cc(N2C(=O)C[C@@H]3CN(CCOCC4(F)CN(C(=O)/C=C/CN(C)C)C4)c4c(Cl)cccc4N(C)C(=O)[C@H]32)n1` [Example 304, (3aR,11aS)-6-chloro-5-(2-((1-((E)-4-(dimethylamino)but-2-enoyl)-3-fluoroazetidin-3-yl)methoxy)ethyl)-10-methyl-1-(6-methyl-4-(trifluoromethyl)pyridin-2-yl)-1,3a,4,5,10,11a-hexahydro-2H-benzo[b]pyrrolo[2,3-f][1,4]diazocine-2,11(3H)-dione] showed a Kinact/Kl of 1.87e+06 M⁻¹ s⁻¹.

Compound `C=CC(=O)N1Cc2cnc(CN3C[C@H]4CC(=O)N(c5cc(C(F)(F)F)cc(C)n5)[C@@H]4C(=O)N(C)c4cccc(Cl)c43)cc2C1` [Example 277, (3aR,11aS)-5-((2-acryloyl-2,3-dihydro-1H-pyrrolo[3,4-c]pyridin-6-yl)methyl)-6-chloro-10-methyl-1-(6-methyl-4-(trifluoromethyl)pyridin-2-yl)-1,3a,4,5,10,11a-hexahydro-2H-benzo[b]pyrrolo[2,3-f][1,4]diazocine-2,11(3H)-dione] showed a Kinact/Kl of 80000 M⁻¹ s⁻¹.

Compound `C=C(CN(C)C)C(=O)N1CC[C@@H](COCCN2C[C@H]3CC(=O)N(c4cc(C(F)(F)F)cc(C)n4)[C@@H]3C(=O)N(C)c3cccc(C)c32)C1` [Example 180, (3aR,11aS)-5-(2-(((R)-1-(2-((dimeth-ylamino)methyl)-acryloyl)pyrrolidin-3-yl)methoxy)eth-yl)-6,10-dimethyl-1-(6-methyl-4-(trifluoromethyl)-pyridin-2-yl)-1,3a,4,5,10,11a-hexahydro-2H-benzo[b]pyrrolo [2,3-f][1,4]diazo-cine-2,11(3H)-dione] had a Kinact/Kl of 2.72e+06 M⁻¹ s⁻¹.

The compound `C=C(CN(C)C)C(=O)N1CC(OCCCN2C[C@H]3CC(=O)N(c4cc(C(F)(F)F)cc(C)n4)[C@@H]3C(=O)N(C)c3cccc(C)c32)C1` [Example 77, (3aR,11aS)-5-(3-((1-(2-((dimethylamino)methyl)acryloyl)azetidin-3-yl)oxy)propyl)-6,10-dimethyl-1-(6-methyl-4-(trifluoromethyl)pyridin-2-yl)-1,3a,4,5,10,11a-hexahydro-2H-benzo[b]pyrrolo[2,3-f][1,4]diazocine-2,11(3H)-dione] showed a Kinact/Kl of 2.55e+06 M⁻¹ s⁻¹.

Turning to `C/C=C(\CN(C)C)C(=O)N1CC(OCCCN2C[C@H]3CC(=O)N(c4cc(C(F)(F)F)cc(C)n4)[C@@H]3C(=O)N(C)c3cccc(C)c32)C1` [Example 194, (3aR,11aS)-5-(3-((1-((E)-2-((dimeth-ylamino)methyl)-but-2-enoyl)azeti-din-3-yl)oxy)prop-yl)-6,10-dimethyl-1-(6-methyl-4-(trifluoromethyl)-pyridin-2-yl)-1,3a,4,5,10,11a-hexahydro-2H-benzo[b]pyrrolo [2,3-f][1,4]diazo-cine-2,11(3H)-dione], the Kinact/Kl stood at 4.38e+06 M⁻¹ s⁻¹.

With `C=CC(=O)N1Cc2nc(CN3C[C@H]4CC(=O)N(c5cc(C(F)(F)F)cc(C)n5)[C@@H]4C(=O)N(C)c4cccc(Cl)c43)cn2CC1C(F)(F)F` (single isomer, unassigned) [Example 293b], the Kinact/Kl is 1.28e+06 M⁻¹ s⁻¹.

Turning to `C=CC(=O)N1CC(n2cnc(CN3C[C@H]4CC(=O)N(c5cc(C(F)(F)F)cc(C)n5)[C@@H]4C(=O)N(C)c4cccc(C)c43)n2)C1` [Example 139, (3aR,11aS)-5-((1-(1-acryloylazetidin-3-yl)-1H-1,2,4-triazol-3-yl)methyl)-6,10-dimethyl-1-(6-methyl-4-(trifluoromethyl)pyridin-2-yl)-1,3a,4,5,10,11a-hexahydro-2H-benzo[b]pyrrolo[2,3-f][1,4]diazocine-2,11(3H)-dione], the Kinact/Kl was determined as 2.37e+06 M⁻¹ s⁻¹.

Compound `C=C(CN(C)C)C(=O)N1CC(C(=O)N(C)CCN2C[C@H]3CC(=O)N(c4cc(C(F)(F)F)cc(C)n4)[C@@H]3C(=O)N(C)c3cccc(Cl)c32)C1` [Example 65, N-(2-((3aR,11aS)-6-chloro-10-methyl-1-(6-methyl-4-(trifluoromethyl)pyridin-2-yl)-2,11-dioxo-1,2,3,3a,4,10,11,11a-octahydro-5H-benzo[b]pyrrolo[2,3-f][1,4]diazocin-5-yl)ethyl)-1-(2-((dimethylamino)methyl)acryloyl)-N-methylazetidine-3-carboxamide] showed a Kinact/Kl of 4.96e+06 M⁻¹ s⁻¹.

The compound `Cc1cc(C(F)(F)F)cc(N2C(=O)C[C@@H]3CN(Cc4ccc5c(c4)OCCN5C(=O)/C=C/CN(C)C)c4c(Cl)cccc4N(C)C(=O)[C@H]32)n1` [Example 308, (3aR,11aS)-6-chloro-5-((4-((E)-4-(dimethylamino)but-2-enoyl)-3,4-dihydro-2H-benzo[b][1,4]oxazin-7-yl)methyl)-10-methyl-1-(6-methyl-4-(trifluoromethyl)pyridin-2-yl)-1,3a,4,5,10,11a-hexahydro-2H-benzo[b]pyrrolo[2,3-f][1,4]diazocine-2,11(3H)-dione] returned a Kinact/Kl of 280000 M⁻¹ s⁻¹.

In the case of `C=CC(=O)N1CC(c2nccc(CN3C[C@H]4CC(=O)N(c5cc(C(F)(F)F)cc(C)n5)[C@@H]4C(=O)N(C)c4cccc(F)c43)n2)C1` [Example 129, (3aR,11aS)-5-((2-(1-acryloylazetidin-3-yl)pyrimidin-4-yl)methyl)-6-fluoro-10-methyl-1-(6-methyl-4-(trifluoromethyl)pyridin-2-yl)-1,3a,4,5,10,11a-hexahydro-2H-benzo[b]pyrrolo[2,3-f][1,4]diazocine-2,11(3H)-dione], the Kinact/Kl turned out to be 400000 M⁻¹ s⁻¹.

The compound `Cc1cc(C(F)(F)F)cc(N2C(=O)C[C@@H]3CN(CCCOC4CN(C(=O)/C(Cl)=C/CN(C)C)C4)c4c(F)cccc4N(C)C(=O)[C@H]32)n1` [Example 79, (3aR,11aS)-5-(3-((1-((Z)-2-chloro-4-(dimethylamino)but-2-enoyl)azetidin-3-yl)oxy)propyl)-6-fluoro-10-methyl-1-(6-methyl-4-(trifluoromethyl)pyridin-2-yl)-1,3a,4,5,10,11a-hexahydro-2H-benzo[b]pyrrolo[2,3-f][1,4]diazocine-2,11(3H)-dione] displayed a Kinact/Kl of 1.46e+06 M⁻¹ s⁻¹.

The compound `C=CC(=O)N1CC(n2cc(CN3C[C@H]4CC(=O)N(c5cc(C(F)(F)F)cc(C)n5)[C@@H]4C(=O)N(C)c4cccc(F)c43)cn2)C1` [Example 121, (3aR,11aS)-5-((1-(1-acryloylazetidin-3-yl)-1H-pyrazol-4-yl)methyl)-6-fluoro-10-methyl-1-(6-methyl-4-(trifluoromethyl)pyridin-2-yl)-1,3a,4,5,10,11a-hexahydro-2H-benzo[b]pyrrolo[2,3-f][1,4]diazocine-2,11(3H)-dione] registered a Kinact/Kl of 540000 M⁻¹ s⁻¹.

Regarding `C=CC(=O)N1CC(N2CCCC(CN3C[C@H]4CC(=O)N(c5cc(C(F)(F)F)cc(C)n5)[C@@H]4C(=O)N(C)c4cccc(F)c43)C2)C1` (single isomer, unassigned) [Example 225a], the Kinact/Kl came to 320000 M⁻¹ s⁻¹.

The compound `C=CC(=O)N1Cc2cc(CN3C[C@H]4CC(=O)N(c5cc(C(F)(F)F)cc(C)n5)[C@@H]4C(=O)N(C)c4cccc(Cl)c43)cnc2C1COC` (single isomer, unassigned) [Example 237] showed a Kinact/Kl of 270000 M⁻¹ s⁻¹.
